Here are results for one compound from patent US5968910A, “Compositions containing two or three inhibitors of different HIV reverse transcriptases” (priority 1994, dated 1999).

≈ marks a conversion by molar mass, not a printed value. Read-outs that look alike come from different tables or passages of the source. Where only a bound is given, the exact number is not on record here.

One assay relates to HIV-1(IIIB) (WT). The assay is described as follows: microbe, parasite or virus in culture. Format: cell-based. Conditions: Human immunodeficiency virus 1, IIIB, CCRF-CEM. An outline of the steps: (§1)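 Infect CEM cells (250,000 cells per ml) with virus at 100 CCID50/ml; add infected suspension to wells holding diluted compound; incubate 4 days, 37° C.; examine for syncytia.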
The subject of another assay is HIV-1/B 101Glu. The assay is described as follows: Sensitivity of mutant HIV-1 strain in CEM cell cultures. In kind it is cell-based. The conditions noted are these: Human immunodeficiency virus 1, CCRF-CEM; Table 5; read-out: EC50. The method in brief: as §1
The next assay relates to HIV-1/I(0.1) 103-Asn. Described as above. Conditions: Human immunodeficiency virus 1, CCRF-CEM; Table 5; read-out: EC50. In kind it is cell-based. The method in brief:
as §1

In a further assay the test system is HIV-1/II(0.1) 100-Ile. The assay is described as above. Format: cell-based. Conditions: Human immunodeficiency virus 1, CCRF-CEM; Table 5; read-out: EC50. An outline of the steps:
as §1

The next assay concerns HIV-1/III(0.1) 103-Asn. The assay is described as above. The conditions noted are these: Human immunodeficiency virus 1, CCRF-CEM; Table 5; read-out: EC50. Format: cell-based. The method in brief:
as §1

A further assay has as its system HIV-1/Nev (106-Ala). The assay is described as above. Format: cell-based. The conditions noted are these: Human immunodeficiency virus 1, CCRF-CEM; CEM cells, Table 1; read-out: 50% Effective Concentration. The method in brief: as §1
A further assay has as its system HIV-1/Pyr (181-Cys). The assay is described as above. Conditions: Human immunodeficiency virus 1, CCRF-CEM; CEM cells, Table 1; read-out: 50% Effective Concentration. In kind it is cell-based. An outline of the steps:
as §1

The subject of assay [1] is HIV-1/TIBO R82150 (100-Ile). The assay is described as above. In kind it is cell-based. Conditions: Human immunodeficiency virus 1, CCRF-CEM; CEM cells, Table 1; read-out: 50% Effective Concentration. An outline of the steps:
as §1

Assay [2] deals with HIV-1/TIBO R82913 (103-Asn). Described as above. Format: cell-based. Conditions: Human immunodeficiency virus 1, CCRF-CEM; CEM cells, Table 1; read-out: 50% Effective Concentration. An outline of the steps:
as §1

Assay [3] deals with HIV-1/TSAO-m^3 T (138-Lys). Described as above. In kind it is cell-based. The conditions noted are these: Human immunodeficiency virus 1, CCRF-CEM; CEM cells, Table 1; read-out: 50% Effective Concentration. The method in brief: as §1
The test system of assay [4] is HIV-1/V(0.1) 101-Ile + 141-Glu. Described as above. Format: cell-based. Conditions: Human immunodeficiency virus 1, CCRF-CEM; Table 5; read-out: EC50. An outline of the steps:
as §1

A further assay concerns HIV-1/V(0.5) 103-Asn. The assay is described as above. Format: cell-based. The conditions noted are these: Human immunodeficiency virus 1, CCRF-CEM; Table 5; read-out: EC50. An outline of the steps:
as §1

The target of another assay is HIV-1 RT (WT) (Human immunodeficiency virus type 1 group M subtype B, UniProt P03366). The assay is described as follows: biochemical. Conditions: IC50, anti-HIV-1 RT (WT) activity. On the procedure:
The reaction mixture (50 μl) contained 50 mM Tris.HCl, pH 7.8, 5 mM dithiothreitol, […] glutathione, 500 μM EDTA, 150 mM KCl, 5 mM MgCl2, 1.25 μg of bovine serum albumin, a fixed concentration of the labeled substrate [2,8-^3 H]dGTP (2.95 μM, 2 μCi), a fixed concentration of the template/primer poly(C).oligo(dG) (0.1 mM), 0.06% Triton X-100, 5 μl of inhibitor solution [containing various concentrations (5-fold dilutions) of the test compounds], and 5 μl of the RT preparation. The reaction mixtures were incubated at 37° C. for 30 min, at which time 100 μl of calf thymus DNA (150 μg/ml), 2 ml of Na4 P2 07 (0.1 M in 1M HCl), and 2 ml of trichloroacetic acid (10%, v/v) were added. The solutions were kept on ice for 30 min, after which the acid-insoluble material was washed and analyzed for radioactivity.
Compounds I, III, IV and V were evaluated for their inhibitory effect on recombinant HIV-1 RT.

Assay [5] relates to HIV-1/TIBO R82150 (100-Ile). Conditions: background, Balzarini I/II; cited from earlier work.

Turning to `CC(C)=CCN1Cc2cc(Cl)cc3[nH]c(=S)n(c23)C[C@@H]1C` [TIBO R82913, reference compound], the EC50 in the assay on HIV-1(IIIB) (WT) (CEM cells, Table 1, read-out: 50% Effective Concentration) was 0.016 µg/mL (≈ 0.0497 µM); in the assay with HIV-1(IIIB) (WT) (HIV-1 (III8), Table 5, read-out: EC50), 0.02 µg/mL (≈ 0.0621 µM); with HIV-1/B 101Glu, above 2.5 µg/mL; in the assay with HIV-1/I(0.1) 103-Asn, 1.1 µg/mL (≈ 3.42 µM); in the assay with HIV-1/II(0.1) 100-Ile it was at least 5 µg/mL; in the assay with HIV-1/III(0.1) 103-Asn, 0.23 µg/mL (≈ 0.715 µM). In addition, the EC50 in the assay with HIV-1/Nev (106-Ala) amounted to 0.5 µg/mL (≈ 1.55 µM); in the assay with HIV-1/Pyr (181-Cys) it was 2 µg/mL (≈ 6.21 µM); in assay [1], 1.75 µg/mL (≈ 5.44 µM); in assay [2], 4.3 µg/mL (≈ 13.4 µM); in assay [3], 0.3 µg/mL (≈ 0.932 µM); in [4], 0.16 µg/mL (≈ 0.497 µM). Besides, the EC50 in the assay with HIV-1/V(0.5) 103-Asn was found to be 5 µg/mL (≈ 15.5 µM). Further, the IC50 at HIV-1 RT (WT) was 2.05 µM. Moreover, the “resistance of HIV-1 strains containing the 100 Leu→Ile mutation in their RT” value in assay [5] is “resistant”.

The IC50 is the concentration at which inhibition is half-maximal.
